Experimental data as given in ChEMBL document CHEMBL5344433, “Target Separation and Potential Anticancer Activity of Withanolide-Based Glucose Transporter Protein 1 Inhibitors from Physalis angulata var. villosa” (J Nat Prod, 2024).
Activity calls are given as the source filed them. The calls are words filed in the database; no cut-off is given here.

What was measured:
[1] = target: T1, Solute carrier family 2, facilitated glucose transporter member 1 (Homo sapiens) (UniProt P11166); experiment: Agonist activity at GLUTI (unknown origin); conditions: filed as agonist
T1 sequence (whole entry): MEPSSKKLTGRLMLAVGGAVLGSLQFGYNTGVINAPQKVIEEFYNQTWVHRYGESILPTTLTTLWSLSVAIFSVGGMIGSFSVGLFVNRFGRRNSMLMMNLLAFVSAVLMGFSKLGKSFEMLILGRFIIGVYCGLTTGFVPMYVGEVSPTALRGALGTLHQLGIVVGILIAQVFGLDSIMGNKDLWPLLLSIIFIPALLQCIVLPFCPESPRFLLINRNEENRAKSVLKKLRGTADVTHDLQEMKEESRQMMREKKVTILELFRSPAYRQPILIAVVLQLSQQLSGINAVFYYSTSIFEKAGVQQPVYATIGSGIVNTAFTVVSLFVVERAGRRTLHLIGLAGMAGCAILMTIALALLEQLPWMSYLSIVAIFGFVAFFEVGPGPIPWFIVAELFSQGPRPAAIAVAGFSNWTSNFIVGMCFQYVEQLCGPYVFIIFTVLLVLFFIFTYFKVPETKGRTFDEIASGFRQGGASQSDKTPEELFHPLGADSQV

[2] = target: T2, Solute carrier family 2, facilitated glucose transporter member 1 (Homo sapiens, UniProt P11166); experiment: Binding affinity to GLUT1 (unknown origin) assessed as dissociation constant at 800 uM by MST assay
T2 sequence (P11166 whole entry): T1 sequence (whole entry)

[3] = target: T1, Solute carrier family 2, facilitated glucose transporter member 1 (Homo sapiens); experiment: Inhibition of GLUT1 in human MCF7 cells assessed as fold change at 10 uM by Western blot analysis; format: cell-based
MCF7 [4] = experiment: Anticancer activity against human MCF7 cells assessed as increase in cell necrosis at 20 uM incubated for 48 hrs relative to control; format: functional
MCF7 [5] = experiment: Induction of apoptosis in human MCF7 cells assessed as early apoptotic cells at 10 uM incubated for 24 hrs by Annexin V-FITC/7AAD staining based flow cytometery (reference value: 0.50%); format: functional
MCF7 [6] = experiment: Induction of oxidative stress in human MCF7 cells assessed as increase in intracellular ROS level at 5 to 20 uM incubated for 24 hrs; format: functional, cell-based; conditions: dose 5-20 µM
[7] = target: T2, Solute carrier family 2, facilitated glucose transporter member 1; experiment: Inhibition of GLUT1 in human MCF7 cells assessed as ATP production incubated for 24 hrs in presence of 0.1 mM glucose; format: cell-based
MCF7 [8] = experiment: Induction of cell cycle arrest in human MCF7 cells assessed as accumulation of cells at G2/M phase at 10 uM by propidium iodide staining based flow cytometry (reference value: 9.72%); format: functional; conditions: time 30 min, 0.5 h
MCF7 [9] = experiment: Induction of cell cycle arrest in human MCF7 cells assessed as accumulation of cells at G2/M phase at 20 uM by propidium iodide staining based flow cytometry (reference value: 9.72%); format: functional; conditions: time 30 min, 0.5 h
MCF7 [10] = experiment: Induction of apoptosis in human MCF7 cells assessed as viable cells at 10 uM incubated for 24 hrs by Annexin V-FITC/7AAD staining based flow cytometery (reference value: 98.8%); format: functional; conditions: read-out: Activity
MCF7 [11] = experiment: Induction of apoptosis in human MCF7 cells assessed as necrotic cells at 5 uM incubated for 24 hrs by Annexin V-FITC/7AAD staining based flow cytometery (reference value: 0.019%); format: functional
MCF7 [12] = experiment: Induction of apoptosis in human MCF7 cells assessed as late apoptotic cells at 20 uM incubated for 24 hrs by Annexin V-FITC/7AAD staining based flow cytometery (reference value: 0.68%); format: functional
[13] = target: T1, Solute carrier family 2, facilitated glucose transporter member 1 (Homo sapiens); experiment: Inhibition of GLUT1 in human MCF7 cells assessed as reduction in lactate production measured after 24 hrs; format: cell-based; conditions: dose 5-20 µM
MCF7 [14] = experiment: Induction of apoptosis in human MCF7 cells assessed as late apoptotic cells at 5 uM incubated for 24 hrs by Annexin V-FITC/7AAD staining based flow cytometery (reference value: 0.68%); format: functional
MCF7 [15] = experiment: Induction of apoptosis in human MCF7 cells assessed as early apoptotic cells at 20 uM incubated for 24 hrs by Annexin V-FITC/7AAD staining based flow cytometery (reference value: 0.50%); format: functional
MCF7 [16] = experiment: Induction of apoptosis in human MCF7 cells assessed as necrotic cells at 10 uM incubated for 24 hrs by Annexin V-FITC/7AAD staining based flow cytometery (reference value: 0.019%); format: functional
MCF7 [17] = experiment: Induction of apoptosis in human MCF7 cells assessed as viable cells at 20 uM incubated for 24 hrs by Annexin V-FITC/7AAD staining based flow cytometery (reference value: 98.8%); format: functional; conditions: read-out: Activity
[18] = target: T1, Solute carrier family 2, facilitated glucose transporter member 1 (Homo sapiens); experiment: Inhibition of GLUT1 in human MCF7 cells assessed as reduction in GLUT1 degradation by CETSA assay; format: cell-based
MCF7 [19] = experiment: Induction of oxidative stress in human MCF7 cells assessed as fold increase in intracellular ROS level at 20 uM incubated for 24 hrs; format: functional
[20] = target: T1, Solute carrier family 2, facilitated glucose transporter member 1 (Homo sapiens); experiment: Inhibition of GLUT1 in human MCF7 cells assessed as reduction in maximal respiratory capacity at 5 to 20 uM incubated for 24 hrs by Seahorse XFe96 analyzer; format: cell-based; conditions: dose 5-20 µM
MCF7 [21] = experiment: Induction of apoptosis in human MCF7 cells assessed as necrotic cells at 20 uM incubated for 24 hrs by Annexin V-FITC/7AAD staining based flow cytometery (reference value: 0.019%); format: functional
[22] = target: T1, Solute carrier family 2, facilitated glucose transporter member 1 (Homo sapiens); experiment: Inhibition of GLUT1 in human MCF7 cells assessed as fold change at 20 uM by Western blot analysis; format: cell-based
MCF7 [23] = experiment: Induction of apoptosis in human MCF7 cells assessed as early apoptotic cells at 5 uM incubated for 24 hrs by Annexin V-FITC/7AAD staining based flow cytometery (reference value: 0.50%); format: functional
[24] = target: T1, Solute carrier family 2, facilitated glucose transporter member 1 (Homo sapiens); experiment: Inhibition of GLUT1 in human MCF7 cells assessed as fold change at 5 uM by Western blot analysis; format: cell-based
MCF7 [25] = experiment: Anticancer activity against human MCF7 cells assessed as increase in cell apoptosis at 20 uM incubated for 48 hrs relative to control; format: functional
MCF7 [26] = experiment: Induction of cell cycle arrest in human MCF7 cells assessed as accumulation of cells at G2/M phase at 5 uM by propidium iodide staining based flow cytometry (reference value: 9.72%); format: functional; conditions: time 30 min, 0.5 h
MCF7 [27] = experiment: Induction of apoptosis in human MCF7 cells assessed as late apoptotic cells at 10 uM incubated for 24 hrs by Annexin V-FITC/7AAD staining based flow cytometery (reference value: 0.68%); format: functional
[28] = target: T1, Solute carrier family 2, facilitated glucose transporter member 1 (Homo sapiens); experiment: Inhibition of GLUT1 in human MCF7 cells assessed as decrease in extracellular acidification rate at 5 to 20 uM measured for 24 hrs by Seahorse XFe96 analyzer; format: cell-based; conditions: dose 5-20 µM
[29] = target: T1, Solute carrier family 2, facilitated glucose transporter member 1 (Homo sapiens); experiment: Inhibition of human GLUT1 in HEK293FT cells assessed as reduction in glucose uptake at 10 uM incubated for 24 hrs and further incubated for 1 hr under dark condition by flow cytometry; format: cell-based; conditions: time 25.0 hrs
MCF7 [30] = experiment: Induction of apoptosis in human MCF7 cells assessed as viable cells at 5 uM incubated for 24 hrs by Annexin V-FITC/7AAD staining based flow cytometery (reference value: 98.8%); format: functional; conditions: read-out: Activity
[31] = Cytotoxicity against human MCF7 cells assessed as reduction in cell viability incubated for 24 hrs by MTT assay; format: toxicity, cell-based
[32] = target: T2, Solute carrier family 2, facilitated glucose transporter member 1; experiment: Inhibition of GLUT1 in human MCF7 cells assessed as ATP production incubated for 24 hrs in presence of 10 mM glucose; format: cell-based
[33] = target: T1, Solute carrier family 2, facilitated glucose transporter member 1 (Homo sapiens); experiment: Inhibition of GLUTI (unknown origin)

In the case of `CC(=O)O[C@H]1C=C([C@H](C)[C@H]2CC(C)=C(C)C(=O)O2)[C@@]2(C)CC[C@H]3[C@@H](C[C@H]4O[C@]45[C@@H](O)C=CC(=O)[C@]35C)[C@@]12O`, the Activity [1] is reported as “Active”.
For `C[C@@]12C[C@H]3OC(=O)[C@@H]1CO[C@]14O[C@@]5([C@H]2C1=O)[C@@]3(C)OC(=O)[C@@]5(O)CC[C@H]1[C@H]4C[C@H]2O[C@]23CC=CC(=O)[C@]13C`, the Activity [1] was “Active”.
`CC(=O)O[C@H]1[C@@H]2O[C@]2([C@H](C)[C@H]2CC(CO)=C(C)C(=O)O2)[C@@]2(C)CCC3C(C[C@@H](O)[C@@]4(O)CC=CC(=O)[C@]34C)[C@@]12O` (some centres not stated) showed a Kd [2] of 2.6 µM, a fold change (FC) [3] of 0.44 and an Activity (MCF7 [4]) of 60%. For the same compound, the Activity (MCF7 [5]) was 14.1%, the Activity (MCF7 [6]) was “Dose-Dependent Effect” and the IC50 [7] was 3.46 µM. For the same compound, the Activity (MCF7 [8]) was 22%, the Activity (MCF7 [9]) was 47.6% and the viability at 10 µM (MCF7 [10]) was 34.6%. The Activity (MCF7 [11]) was 3.84%, the Activity (MCF7 [12]) was 60% and the inhibition [13] was “Dose-Dependent Effect”. The Activity (MCF7 [14]) was 15%, the Activity (MCF7 [15]) was 14.9% and the Activity (MCF7 [16]) was 4.56%. For the same compound, the viability at 20 µM (MCF7 [17]) was 24.2%, the inhibition [18] was “Active” and the “fold change (FC)” value (MCF7 [19]) was 2.8. The inhibition [20] was “Active”, the Activity (MCF7 [21]) was 0.92% and the fold change (FC) [22] was 0.4. The Activity (MCF7 [23]) was 5.76%, the fold change (FC) [24] was 0.68 and the Activity (MCF7 [25]) was 15%. For the same compound, the Activity (MCF7 [26]) was 11.3%, the Activity (MCF7 [27]) was 46.7% and the inhibition [28] was “Active”. For the same compound, the inhibition [29] was “Active”, the viability at 5 µM (MCF7 [30]) was 75.4% and the IC50 at 24 h [31] was 18 µM. For the same compound, the IC50 [32] was 180 µM.
With `CC(=O)O[C@H]1C=C([C@H](C)[C@H]2CC(C)=C(C)C(=O)O2)[C@@]2(C)CC[C@H]3C(C[C@@H](O)[C@@]4(Cl)CC=CC(=O)[C@]34C)[C@]12O` (some centres not stated) the inhibition [33] was “Active”.
With `CC(=O)O[C@H]1C[C@H]([C@H](C)[C@@H]2OC(=O)C(C)=C(C)[C@@H]2O)[C@@]2(C)CCC3C(C[C@@H](O)[C@@]4(O)CC=CC(=O)[C@]34C)[C@@]12O` (some centres not stated) the Kd [2] was 2.4 µM, the inhibition [33] was “Active” and the inhibition [18] was “Active”. For the same compound, the Activity [1] was “Active”.
In the case of `CC(=O)O[C@H]1C[C@@](O)([C@H](C)[C@H]2CC(C)=C(C)C(=O)O2)[C@@]2(C)CC[C@H]3[C@@H](C[C@H]4O[C@]45CC=CC(=O)[C@]35C)[C@@]12O`, the Kd [2] is reported as 2.6 µM, the inhibition [18] is reported as “Active” and the Activity [1] is reported as “Active”.
For `CC(=O)O[C@H]1C[C@@](O)([C@H](C)[C@H]2CC(C)=C(C)C(=O)O2)[C@@]2(C)CC[C@H]3[C@@H](C[C@H]4O[C@]45[C@@H](O)C=CC(=O)[C@]35C)[C@@]12O`, the Activity [1] was “Active”.
